Tested on: not listed separately
Test: Inhibition of PDGFR (unknown origin)
Design: species or system Homo sapiens

Structure (SMILES)	IC50 [nM]
COc1ccccc1-c1nc2c(c3c1[nH]c1ccc(OCc4ccccc4)cc13)C(=O)NC2=O	> 30000
COc1cc2[nH]c3c(-c4ccccc4)nc4c(c3c2cc1OC)C(=O)NC4=O	1000
COc1cc2[nH]c3c(-c4ccccc4C)nc4c(c3c2cc1OC)C(=O)NC4=O	1000
COc1ccccc1-c1nc2c(c3c1[nH]c1ccc(O)cc13)C(=O)NC2=O	10000
O=C1NC(=O)c2c1nc(-c1ccccc1)c1[nH]c3ccccc3c21	> 30000
COc1ccc2[nH]c3c(-c4ccccc4)nc4c(c3c2c1)C(=O)NC4=O	3000
Cc1ccccc1-c1nc2c(c3c1[nH]c1ccc(OCc4ccccc4)cc13)C(=O)NC2=O	> 30000
COc1ccc2[nH]c3c(-c4ccccc4)nc4c(c3c2c1)C(=O)N(C)C4=O	> 30000
Cc1ccccc1-c1nc2c(c3c1[nH]c1ccc(O)cc13)C(=O)NC2=O	> 30000

Tested on: A549
Test: Antiproliferative activity against human A549 cells assessed as cell growth inhibition
Assay type: functional, cell-based

Structure (SMILES)	IC50 [nM]
CCn1c(C)c(C(=O)NCc2ccc(F)cc2)c2cc(OCC(=O)NCCOc3ccccc3OC)ccc21	4990

Tested on: SW480
Test: Antiproliferative activity against human SW480 cells assessed as cell growth inhibition
Assay type: functional, cell-based

Structure (SMILES)	IC50 [nM]
CCn1c(C)c(C(=O)NCc2ccc(F)cc2)c2cc(OCC(=O)NCCOc3ccccc3OC)ccc21	13100

Tested on: not listed separately
Test: Antiproliferative activity against mouse Swiss-3T3 cells assessed as cell growth inhibition incubated for 72 hrs by cell counter method
Assay type: toxicity, cell-based

Structure (SMILES)	IC50 at 72 h [nM]
Cn1c(SSc2c(C(=O)Nc3ccccc3)c3c(O)cccc3n2C)c(C(=O)Nc2ccccc2)c2c(O)cccc21	1900

Tested on: not listed separately
Test: Inhibition of PDGF-BB-stimulated PDGFR autophosphorylation in mouse Swiss-3T3 cells treated for 2 hrs followed by PDGF-BB stimulation measured after 10 mins by immunoblot analysis
Assay type: cell-based

Structure (SMILES)	IC50 [nM]
COCC(=O)Oc1ccc2[nH]c(C(=O)c3cc4ccccc4[nH]3)cc2c1	200
O=C(c1cc2ccccc2s1)c1cc2ccccc2s1	> 30000
COc1ccc2cc(C(=O)c3cc4ccccc4[nH]3)[nH]c2c1	300
O=C(c1cc2ccccc2[nH]1)c1cc2cc(O)ccc2[nH]1	200
CN(C)CCC(=O)Oc1ccc2[nH]c(C(=O)c3cc4ccccc4[nH]3)cc2c1	100
Cc1ccc2[nH]c(C(=O)c3cc4ccccc4[nH]3)cc2c1	7500
COc1ccc2[nH]c(C(=O)c3cc4ccccc4[nH]3)cc2c1	300
COc1cccc2cc(C(=O)c3cc4ccccc4[nH]3)[nH]c12	> 30000

Molecular target: T1, Proto-oncogene tyrosine-protein kinase Src (Homo sapiens, UniProt P12931)
T1 sequence (P12931 2-536 limits assumed): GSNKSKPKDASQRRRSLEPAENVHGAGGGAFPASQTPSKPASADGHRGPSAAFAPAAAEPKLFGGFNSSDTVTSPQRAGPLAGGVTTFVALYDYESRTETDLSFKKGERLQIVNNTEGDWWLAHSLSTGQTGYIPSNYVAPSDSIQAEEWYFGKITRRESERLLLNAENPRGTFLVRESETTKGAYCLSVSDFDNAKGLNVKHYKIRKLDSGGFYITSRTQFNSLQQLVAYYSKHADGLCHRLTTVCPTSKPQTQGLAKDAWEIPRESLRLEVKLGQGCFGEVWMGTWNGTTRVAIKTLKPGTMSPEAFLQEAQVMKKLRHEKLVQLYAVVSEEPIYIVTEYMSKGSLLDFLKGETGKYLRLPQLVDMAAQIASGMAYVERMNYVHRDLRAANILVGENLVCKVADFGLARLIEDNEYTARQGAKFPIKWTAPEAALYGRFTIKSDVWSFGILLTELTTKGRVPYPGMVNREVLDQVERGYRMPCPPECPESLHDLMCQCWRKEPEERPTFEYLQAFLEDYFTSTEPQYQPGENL
Test: Inhibition of src (unknown origin)

Structure (SMILES)	IC50 [nM]
O=C1/C(=N\c2ccc(Cl)cc2)c2ccccc2N1Cc1ccccc1	106000

Tested on: HeLa
Test: Antiproliferative activity against human HeLa cells assessed as cell growth inhibition
Assay type: functional, cell-based

Structure (SMILES)	IC50 [nM]
CCn1c(C)c(C(=O)NCc2ccc(F)cc2)c2cc(OCC(=O)NCCOc3ccccc3OC)ccc21	6810

Molecular target: T1, Proto-oncogene tyrosine-protein kinase Src
Test: Inhibition of p60 c-src (unknown origin)

Structure (SMILES)	IC50 [nM]
O=C(OCCN1CCCCC1)c1cc2ccccc2n1Cc1ccccc1	1340

Molecular target: T2, Epidermal growth factor receptor (Homo sapiens, UniProt P00533)
T2 sequence (P00533 whole entry): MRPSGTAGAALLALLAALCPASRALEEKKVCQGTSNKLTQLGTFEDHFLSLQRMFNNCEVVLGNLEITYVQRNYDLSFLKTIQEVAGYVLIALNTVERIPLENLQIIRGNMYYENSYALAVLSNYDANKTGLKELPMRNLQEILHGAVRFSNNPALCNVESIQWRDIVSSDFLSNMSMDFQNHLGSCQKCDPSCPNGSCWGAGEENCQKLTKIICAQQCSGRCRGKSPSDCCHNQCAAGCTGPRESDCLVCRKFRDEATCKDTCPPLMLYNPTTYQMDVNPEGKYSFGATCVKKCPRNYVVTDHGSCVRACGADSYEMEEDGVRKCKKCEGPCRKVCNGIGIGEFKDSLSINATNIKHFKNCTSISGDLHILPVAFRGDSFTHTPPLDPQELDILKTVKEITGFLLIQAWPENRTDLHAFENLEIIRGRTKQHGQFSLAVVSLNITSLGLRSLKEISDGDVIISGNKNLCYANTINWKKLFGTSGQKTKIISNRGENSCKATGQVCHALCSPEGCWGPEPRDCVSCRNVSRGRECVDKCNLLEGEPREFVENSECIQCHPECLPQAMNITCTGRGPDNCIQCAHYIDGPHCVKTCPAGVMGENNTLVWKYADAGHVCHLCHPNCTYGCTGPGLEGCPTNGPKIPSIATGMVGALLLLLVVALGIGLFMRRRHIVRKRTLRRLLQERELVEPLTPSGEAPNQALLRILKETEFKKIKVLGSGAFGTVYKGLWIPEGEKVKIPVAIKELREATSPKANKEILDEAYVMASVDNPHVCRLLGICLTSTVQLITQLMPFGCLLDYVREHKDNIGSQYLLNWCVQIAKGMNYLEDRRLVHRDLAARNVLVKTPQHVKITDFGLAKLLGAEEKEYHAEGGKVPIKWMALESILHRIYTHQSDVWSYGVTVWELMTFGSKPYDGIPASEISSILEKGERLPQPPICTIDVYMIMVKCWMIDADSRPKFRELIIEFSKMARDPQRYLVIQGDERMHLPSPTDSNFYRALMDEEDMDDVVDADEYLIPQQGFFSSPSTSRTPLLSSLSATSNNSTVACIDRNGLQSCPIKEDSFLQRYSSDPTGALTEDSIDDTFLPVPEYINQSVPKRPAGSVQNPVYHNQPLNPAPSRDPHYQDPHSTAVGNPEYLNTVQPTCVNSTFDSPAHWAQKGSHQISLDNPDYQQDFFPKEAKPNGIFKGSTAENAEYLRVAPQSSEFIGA
Test: Inhibition of EGFR in human A-431 cell membrane vesicles using phospholipase C-gamma-1 as substrate incubated for 10 mins by scintillation counter method
Assay type: cell membranes, Membrane vesicle

Structure (SMILES)	IC50 [nM]
c1ccc2c(c1)[nH]c1c(NC3CCCCC3)ncnc12	> 10000
CN(C)CCNc1ncnc2c1[nH]c1ccccc12	> 10000

Tested on: not listed separately
Test: Inhibition of v-src (unknown origin)

Structure (SMILES)	IC50 [nM]
CNC(=O)c1c([Se][Se]c2c(C(=O)NC)c3ccccc3n2C)n(C)c2ccccc12	400
NC(Cc1c(SSc2[nH]c3ccccc3c2CC(N)C(=O)NCc2ccccc2)[nH]c2ccccc12)C(=O)NCc1ccccc1 (stereo unspecified)	7000
NC(Cc1c([Se][Se]c2[nH]c3ccccc3c2CC(N)C(=O)NCc2ccccc2)[nH]c2ccccc12)C(=O)NCc1ccccc1 (stereo unspecified)	2000
Cn1c([Se][Se]c2c(C(=O)OC(C)(C)C)c3ccccc3n2C)c(C(=O)OC(C)(C)C)c2ccccc21	1500
CNC(=O)c1c(SSc2c(C(=O)NC)c3ccccc3n2C)n(C)c2ccccc12	6000
CCN(CC)CCn1c([Se][Se]c2c(C(=O)NC)c3ccccc3n2CCN(CC)CC)c(C(=O)NC)c2ccccc21	1700
CN(C)CCNC(=O)c1c([Se][Se]c2c(C(=O)NCCN(C)C)c3ccccc3n2C)n(C)c2ccccc12	1800

Molecular target: T2, Epidermal growth factor receptor
Description: Inhibition of EGFR derived from human A-431 cell membrane vesicles using copolymer of Glu/Ala/Tyr as substrate by scintillation counting method

Structure (SMILES)	IC50 [nM]
O=C(CCc1c(SSc2[nH]c3ccccc3c2CCC(=O)Nc2ccccc2)[nH]c2ccccc12)Nc1ccccc1	850

Molecular target: T2, Epidermal growth factor receptor
Test: Inhibition of EGFR derived from human A-431 cells using copolymer of Glu/Ala/Tyr as substrate by scintillation counting method

Structure (SMILES)	IC50 [nM]
Cc1ccc2c(C(=O)Nc3ccccc3)c(SSc3c(C(=O)Nc4ccccc4)c4ccc(C)cc4n3C)n(C)c2c1	> 100000
Cn1c(SSc2c(C(=O)Nc3ccccc3)c3c(O)cccc3n2C)c(C(=O)Nc2ccccc2)c2c(O)cccc21	> 100000
Cc1ccc2c(c1)c(C(=O)Nc1ccccc1)c(SSc1c(C(=O)Nc3ccccc3)c3cc(C)ccc3n1C)n2C	> 100000

Source: ChEMBL document CHEMBL5136983, “How the structural properties of the indole derivatives are important in kinase targeted drug design?: A case study on tyrosine kinase inhibitors” (Bioorg Med Chem, 2022)
